Test results as given in patent US12410141B2, “Anti-cancer spirocyclic-guanidine compounds and uses thereof” (The Johns Hopkins University, priority 2020, dated 2025).

Columns and labels:
[1] = system: 4T1 cells stably expressing 4UbFL; experiment: 4UbFL proteasome reporter, 4T1 cells; type: cell-based; conditions: 4 hr treatment, IVIS imager
Description: Data are presented as IVIS image (FIG. 8A) and bioluminescence units (FIG. 8B).
4T1 and HCC1806 cells were transfected with 4UbFL plasmid using TransIT2020 transfection reagent for a period of 48 hrs and cells were selected using G418 antibiotic from single colonies. Selected cells were seeded in a 24-well plate (50,000/well) and incubated for 18 h at 37° C. in an incubator. Next, cells were treated with compounds for the period of 4 hr and Luciferin was added (50 uL each well, 7.8 mg/mL) and imaged through an IVIS200 instrument and plotted as a bioluminescent value or fold increase to DMSO control.

[2] = type: in vitro ADME, murine and human
Description: Human and mouse liver microsomes and NADPH regenerating system solutions were purchased from Corning Life Sciences (Tewsbury, MA). Human and mouse K2EDTA was purchased from BioIVT (Westbury, NY). Metabolic studies in liver microsomes (0.125 mg/mL) were conducted in 1× phosphate buffered saline (pH 7.4), NADPH-generating system, and 10 μM of RA475 in a final volume of 250 μl. An incubation mixture with and without NADPH-generating system as well as a neat solution without microsomes and NADPH-generating system were prepared. RA475 was added at the same concentration level into human and mouse EDTA plasma. All reactions were initiated with the addition of RA475. Incubations were performed in glass tubes maintained at 37° C. in a shaker bath. At 0, 30, and 60 minutes, 10 μL aliquots were sampled from the reaction mixture and 0.5 mL of acetonitrile containing internal standard (Up284) was added to each samples. Samples were vortex-mixed and underwent centrifugation for 5 min at 1430×g. […] The column effluent was monitored using an AB Sciex 5500 triple quadrupole mass spectrometer. […] Results were assessed qualitatively comparing the average area ratio of RA475 at 0 hr to area ratio at 30 and 60 minutes for both mouse and human liver microsomes. RA475 was not analyzed for metabolites due to the concentration of RA475 not decreasing. […]

| non-enzymatic degradation [2] [%] | additional degradation by CYP450 activity ([2]; microsomes) | SMILES | bioluminescence of 4UbFL reporter [1] |
| --- | --- | --- | --- |
|  |  | Cl.Cl.N#Cc1ccc(/C=C2/C(=O)/C(=C/c3ccc(C#N)cc3)C23CCN(C(=N)N)CC3)cc1 [RA475] | dose-dependent increase |
| ~50 | 9-13% | N#Cc1ccc(/C=C2/C(=O)/C(=C/c3ccc(C#N)cc3)C23CCNCC3)cc1 [Up284, reference compound] |  |
